US6864219B2, “Substituted aryl ketones” (Bayer Aktiengesellschaft, priority 2000, dated 2005)
Blank lines part the entries; values can stand above or below the compound they belong to.

Key:
weeds [1] = experiment: Post-emergence test (Example B), activity against weeds; type: in vivo; conditions: test plants 5-15 cm sprayed; damage rated after three weeks
Protocol: (§1) To produce a suitable preparation of active compound, 1 part by weight of active compound is mixed with the stated amount of solvent, the stated amount of emulsifier is added and the concentrate is diluted with water to the desired concentration.
Test plants with a height of 5-15 cm are sprayed with the preparation of active compound such that the particular amounts of active compound desired are applied per unit area. The concentration of the spray liquor is chosen so that the particular amounts of active compound desired are applied in 1000 l of water/ha.
After three weeks, the degree of damage to the plants is rated in % damage in comparison to the development of the untreated control.
The figures denote: • 0%=no effect (like untreated control) • 100%=total destruction

[2] = log P determination by HPLC on reversed-phase column (C 18), EEC Directive 79/831 V.A8; type: physicochemical; conditions: for logP (Physical data, Table 1): labelled a): acidic range, 0.1% aqueous phosphoric acid/acetonitrile gradient, 43° C.; for chromatographic logP: reversed-phase HPLC column (C 18), mobile-phase label not given, read-out: Log P (preparation examples)
Protocol: The log P values given in Table 1 were determined in accordance with EEC Directive 79/831 V.A8 by HPLC (High Performance Liquid Chromatography) on a reversed-phase column (C 18). Temperature: 43° C.
(a) Mobile phases for the determination in the acidic range: 0.1% aqueous phosphoric acid, acetonitrile; linear gradient of 10% acetonitrile to 90% acetonitrile—the corresponding data in Table 1 are labelled ^a).
(b) Mobile phases for the determination in the neutral range: 0.01 molar aqueous phosphate buffer solution, acetonitrile, linear gradient from 10% acetonitrile to 90% acetonitrile—the corresponding data in Table 1 are labelled ^b).

weeds [3] = experiment: Pre-emergence test (Example A), activity against weeds; type: in vivo; conditions: soil sprayed 24 hours after sowing; damage rated after three weeks
Protocol: as §1
Seeds of the test plants are sown in normal soil. After 24 hours, the soil is sprayed with the preparation of active compound such that the particular amount of active compound desired is applied per unit area. The concentration of active compound in the spray liquor is chosen such that the particular amount of active compound desired is applied in 1000 liters of water per hectare.
After three weeks, the degree of damage to the plants is rated in % damage in comparison to the development of the untreated control. The figures denote: • 0%=no effect (like untreated control) • 100%=total destruction

Structure (SMILES): CSc1ccc(C(=O)C2=C(O)CCCC2=O)c(Cl)c1OCCn1nc(C)n(C)c1=O [Example 8]
activity against weeds, post-emergence (weeds [1]): strong activity
logP (Physical data, Table 1) [2]: logP = 1.94^a)
activity against weeds, pre-emergence (weeds [3]): strong activity

Structure (SMILES): CCn1ncc(C(=O)c2ccc(Cl)c(OCCn3nc(C)n(C)c3=O)c2C)c1O [Example 7]
activity against weeds, post-emergence (weeds [1]): strong activity
logP (Physical data, Table 1) [2]: logP = 1.68^a)
activity against weeds, pre-emergence (weeds [3]): strong activity

chromatographic logP [2]: 1.23
Structure (SMILES): CCn1ncc(C(=O)c2ccc(S(C)(=O)=O)c(OCCn3nc(C)n(C)c3=O)c2C)c1O [Example 1, 4-{3-[2-(3′,4′-dimethyl-1′,2′,4′-1H-triazolin-5′-on-1′-yl)-ethyloxy]-2-methyl-4-methylsulphonyl-benzoyl}-1-ethyl-5-hydroxy-1H-pyrazole]
activity against weeds, post-emergence (weeds [1]): strong activity
activity against weeds, pre-emergence (weeds [3]): strong activity

Structure (SMILES): CCn1ncc(C(=O)c2ccc(SC)c(OCCn3nc(C)n(C)c3=O)c2Cl)c1O [Example 9]
activity against weeds, post-emergence (weeds [1]): strong activity
logP (Physical data, Table 1) [2]: logP = 1.58^a)
activity against weeds, pre-emergence (weeds [3]): strong activity

Structure (SMILES): Cc1c(C(=O)C2=C(O)CCCC2=O)ccc(Cl)c1OCCn1nc(C)n(C)c1=O [Example 6]
activity against weeds, post-emergence (weeds [1]): strong activity
logP (Physical data, Table 1) [2]: logP = 1.93^a)
activity against weeds, pre-emergence (weeds [3]): strong activity

Structure (SMILES): CSc1ccc(C(=O)C2=C(O)CCCC2=O)c(C)c1OCCn1nc(C)n(C)c1=O [Example 10]
activity against weeds, post-emergence (weeds [1]): strong activity
logP (Physical data, Table 1) [2]: logP = 1.91^a)
activity against weeds, pre-emergence (weeds [3]): strong activity

Structure (SMILES): CCn1ncc(C(=O)c2ccc(Cl)c(OCCn3nc(C)n(C)c3=O)c2Cl)c1O [Example 5]
activity against weeds, post-emergence (weeds [1]): strong activity
logP (Physical data, Table 1) [2]: logP = 1.52^a)
activity against weeds, pre-emergence (weeds [3]): strong activity

chromatographic logP [2]: 2.52
Structure (SMILES): CCOc1nn(COc2c(Cl)ccc(C(=O)C3C(=O)CCCC3=O)c2Cl)c(=O)n1C [Example 2, 2-[3-(3′-ethoxy-4′-methyl-1′,2′,4′-1H-triazolin-5′-on-1′-yl)-methoxy-2,4-dichloro-benzoyl]-1,3-cyclohexanedione]
activity against weeds, post-emergence (weeds [1]): strong activity
activity against weeds, pre-emergence (weeds [3]): strong activity

Structure (SMILES): O=C1CCCC(O)=C1C(=O)c1ccc(Cl)c(OCn2ccccc2=O)c1Cl [Example 3]
activity against weeds, post-emergence (weeds [1]): strong activity
logP (Physical data, Table 1) [2]: logP = 2.04^a)
activity against weeds, pre-emergence (weeds [3]): strong activity
